Measurements: patent publication US20220213078A1, “MODULATORS OF THE INTEGRATED STRESS RESPONSE PATHWAY” (EVOTEC INTERNATIONAL GMBH, priority 2019, published 2022)

Test system: Tunicamycin induced ISR (ATF4) in wild-type HEK293 cells
Assay: HEK-ATF4 High Content Imaging assay (prevention of Tunicamycin induced ISR, ATF4 nucleus/cytoplasm signal ratio)
Type: cell-based
Conditions: Homo sapiens, 6 hrs incubation, ATF4 immunofluorescence
Experimental: HEK-ATF4 High Content Imaging Assay
Example compounds were tested in the HEK-ATF4 High Content Imaging assay to assess their pharmacological potency to prevent Tunicamycin induced ISR. Wild-type HEK293 cells were plated in 384-well imaging assay plates at a density of 12,000 cells per well in growth medium (containing DMEM/F12, 10% FBS, 2 mM L-Glutamine, 100 U/mL Penicillin—100 μg/mL Streptomycin) and incubated at 37° C., 5% CO2. 24-hrs later, the medium was changed to 50 μl assay medium per well (DMEM/F12, 0.3% FBS, 2 mM L-Glutamine, 100 U/mL Penicillin—100 μg/mL Streptomycin). Example compounds were serially diluted in dimethyl sulfoxide (DMSO), spotted into intermediate plates and prediluted with assay medium containing 3.3 μM Tunicamycin to give an 11-fold excess of final assay concentration. In addition to the example compound testing area, the plates also contained multiples of control wells for assay normalization purposes, wells, containing Tunicamycin but no example compounds (High control), as well as wells containing neither example compound nor Tunicamycin (Low control). The assay was started by transferring 5 μl from the intermediate plate into the assay plates, followed by incubation for 6 hrs at 37° C., 5% CO2. Subsequently, cells were fixed (4% PFA in PBS, 20 min at room temperature) and submitted to indirect ATF4 immunofluorescence staining (primary antibody rabbit anti ATF4, clone D4B8, Cell Signaling Technologies; secondary antibody Alexa Fluor 488 goat anti-rabbit IgG (H+L), Thermofisher Scientific). Nuclei were stained using Hoechst dye (Thermofisher Scientific), and plates were imaged on an Opera Phenix High Content imaging platform equipped with 405 nm and 488 nm excitation. Finally, images were analyzed using script based algorithms. The main readout HEK-ATF4 monitored the ATF4 signal ratio between nucleus and cytoplasm. Tunicamycin induced an increase in the overall ATF4 ratio signal, which was prevented by ISR modulating example compounds. In addition, HEK-CellCount readout was derived from counting the number of stained nuclei corresponding to healthy cells. This readout served as an internal toxicity control.

SMILES | IC50 [µM]
O=C(COc1ccc(Cl)c(F)c1)N[C@@H]1CC[C@@H](c2nnc(-c3ccc(Cl)cc3)o2)OC1 [Example 1, 2-(4-chloro-3-fluoro-phenoxy)-N-[(3R,6S)-6-[5-(4-chlorophenyl)-1,3,4-oxadiazol-2-yl]tetrahydropyran-3-yl]acetamide] | 0.001 to 0.5
O=C(COc1ccc(Cl)cc1)N[C@@H]1CC[C@@H](c2nnc(-c3ccc(Cl)cc3)o2)OC1 [Example 2, 2-(4-chlorophenoxy)-N-[(3R,6S)-6-[5-(4-chlorophenyl)-1,3,4-oxadiazol-2-yl]oxan-3-yl]acetamide] | 0.001 to 0.5
O=C(COc1ccc(Cl)c(F)c1)N[C@@H]1CC[C@@H](c2nnc(-c3ccc(C(F)(F)F)nc3)o2)OC1 [Example 3, 2-(4-chloro-3-fluorophenoxy)-N-[(3R,6S)-6-{5-[6-(trifluoromethyl)pyridin-3-yl]-1,3,4-oxadiazol-2-yl}oxan-3-yl]acetamide] | 0.001 to 0.5
O=C(COc1ccc(Cl)c(F)c1)N[C@H]1CC[C@H](c2nnc(-c3ccc(Cl)cc3)o2)OC1 [Example 4, 2-(4-chloro-3-fluorophenoxy)-N-[(3S,6R)-6-[5-(4-chlorophenyl)-1,3,4-oxadiazol-2-yl]oxan-3-yl]acetamide] | 0.001 to 0.5
O=C(COc1ccc(Cl)c(F)c1)N[C@@H]1CC[C@@H](c2nnc(-c3ccc(C4CC4)nc3)o2)OC1 [Example 5, 2-(4-chloro-3-fluorophenoxy)-N-[(3R,6S)-6-[5-(6-cyclopropylpyridin-3-yl)-1,3,4-oxadiazol-2-yl]oxan-3-yl]acetamide] | 0.001 to 0.5
CCc1ccc(-c2nnc([C@@H]3CC[C@@H](NC(=O)COc4ccc(Cl)c(F)c4)CO3)o2)cn1 [Example 6, 2-(4-chloro-3-fluorophenoxy)-N-[(3R,6S)-6-[5-(6-ethylpyridin-3-yl)-1,3,4-oxadiazol-2-yl]oxan-3-yl]acetamide] | 0.5 to 2
O=C(COc1cnc(Cl)c(F)c1)N[C@@H]1CC[C@@H](c2nnc(-c3ccc(Cl)cc3)o2)OC1 [Example 7, 2-[(6-chloro-5-fluoropyridin-3-yl)oxy]-N-[(3R,6S)-6-[5-(4-chlorophenyl)-1,3,4-oxadiazol-2-yl]oxan-3-yl]acetamide] | 0.001 to 0.5
O=C(COc1ccnc(C(F)(F)F)c1)N[C@@H]1CC[C@@H](c2nnc(-c3ccc(Cl)cc3)o2)OC1 [Example 8, N-[(3R,6S)-6-[5-(4-chlorophenyl)-1,3,4-oxadiazol-2-yl]oxan-3-yl]-2-{[2-(trifluoromethyl)pyridin-4-yl]oxy}acetamide] | 0.5 to 2
O=C(COc1ccc(Cl)nc1)N[C@@H]1CC[C@@H](c2nnc(-c3ccc(Cl)cc3)o2)OC1 [Example 9, N-[(3R,6S)-6-[5-(4-chlorophenyl)-1,3,4-oxadiazol-2-yl]oxan-3-yl]-2-[(6-chloropyridin-3-yl)oxy]acetamide] | 0.001 to 0.5
Cc1ncc(OCC(=O)N[C@@H]2CC[C@@H](c3nnc(-c4ccc(Cl)cc4)o3)OC2)cc1F [Example 10, N-[(3R,6S)-6-[5-(4-chlorophenyl)-1,3,4-oxadiazol-2-yl]oxan-3-yl]-2-[(5-fluoro-6-methylpyridin-3-yl)oxy]acetamide] | 0.5 to 2
O=C(COc1cnc(Cl)c(F)c1)N[C@@H]1CC[C@@H](c2nnc(-c3ccc(Cl)nc3)o2)OC1 [Example 11, 2-[(6-chloro-5-fluoropyridin-3-yl)oxy]-N-[(3R,6S)-6-[5-(6-chloropyridin-3-yl)-1,3,4-oxadiazol-2-yl]oxan-3-yl]acetamide] | 2 to 15
Cc1ccc(OCC(=O)N[C@@H]2CC[C@@H](c3nnc(-c4ccc(Cl)cc4)o3)OC2)cn1 [Example 12, N-[(3R,6S)-6-[5-(4-chlorophenyl)-1,3,4-oxadiazol-2-yl]oxan-3-yl]-2-[(6-methylpyridin-3-yl)oxy]acetamide] | 2 to 15
O=C(COc1cnc(Cl)cn1)N[C@@H]1CC[C@@H](c2nnc(-c3ccc(Cl)cc3)o2)OC1 [Example 13, N-[(3R,6S)-6-[5-(4-chlorophenyl)-1,3,4-oxadiazol-2-yl]oxan-3-yl]-2-[(5-chloropyrazin-2-yl)oxy]acetamide] | 0.5 to 2
O=C(COc1cnc(Cl)nc1)N[C@@H]1CC[C@@H](c2nnc(-c3ccc(Cl)cc3)o2)OC1 [Example 14, N-[(3R,6S)-6-[5-(4-chlorophenyl)-1,3,4-oxadiazol-2-yl]oxan-3-yl]-2-[(2-chloropyrimidin-5-yl)oxy]acetamide] | 0.5 to 2
Cc1ncc(OCC(=O)N[C@@H]2CC[C@@H](c3nnc(-c4ccc(Cl)cc4)o3)OC2)cc1Cl [Example 15, 2-[(5-chloro-6-methylpyridin-3-yl)oxy]-N-[(3R,6S)-6-[5-(4-chlorophenyl)-1,3,4-oxadiazol-2-yl]oxan-3-yl]acetamide] | 0.001 to 0.5
O=C(COc1ccc(Cl)c(F)c1)N[C@@H]1CC[C@@H](c2nnc(-c3cncc(C(F)(F)F)c3)o2)OC1 [Example 16, 2-(4-chloro-3-fluorophenoxy)-N-[(3R,6S)-6-{5-[5-(trifluoromethyl)pyridin-3-yl]-1,3,4-oxadiazol-2-yl}oxan-3-yl]acetamide] | 0.5 to 2
O=C(COc1ccc(Cl)c(F)c1)N[C@@H]1CC[C@@H](c2nnc(-c3ccnc(C(F)(F)F)c3)o2)OC1 [Example 17, 2-(4-chloro-3-fluorophenoxy)-N-[(3R,6S)-6-{5-[2-(trifluoromethyl)pyridin-4-yl]-1,3,4-oxadiazol-2-yl}oxan-3-yl]acetamide] | 0.001 to 0.5
O=C(COc1ccc(C(F)(F)F)nc1)N[C@@H]1CC[C@@H](c2nnc(-c3ccc(Cl)cc3)o2)OC1 [Example 18] | 0.001 to 0.5
O=C(COc1cncc(C(F)(F)F)c1)N[C@@H]1CC[C@@H](c2nnc(-c3ccc(Cl)cc3)o2)OC1 [Example 19, N-[(3R,6S)-6-[5-(4-chlorophenyl)-1,3,4-oxadiazol-2-yl]oxan-3-yl]-2-{[5-(trifluoromethyl)pyridin-3-yl]oxy}acetamide] | 0.5 to 2
